From patent publication US8828987B2, “Pyridine amide derivatives as EP4 receptor antagonists” (Rottapharm Biotech S.R.L., priority 2010, dated 2014)
pIC50: −log10 of the molar value. Read-outs that look alike come from different tables or passages of the source.

What was measured:
[1] = Pharmacokinetics in male Han Wistar rats, intravenous and oral; assay type: in vivo; conditions: rat, 1.0 mg/kg; for half-life: read-out: t½* (converted)
Experimental: Determination of PK of the Invention Compounds
The pharmacokinetics of compounds E10, E16, E34, E38, E51, were studied in male Han Wistar rats. The rats were treated intravenously and orally (n=3 for each dose route) with a compounds formulated as solutions. The rats were fitted with a jugular cannula for serial sampling. A full profile was acquired for each rat. Plasma extracts were quantitatively analyzed using a specific and sensitive LC-MS/MS bioanalytical method. Inter-individual variations between the three rats in each group were limited (CV for pharmacokinetic parameters was below 50%).

[2] = molecular target: T1, human EP4 receptor (Homo sapiens, UniProt P35408); assay: cAMP assay (AlphaScreen) on human EP4 membrane of transfected cells, antagonism of PGE2; assay type: biochemical; conditions: HEK293 hEP4 cell membrane stimulated with PGE2 3 nM; read-out: functional IC50
T1 construct: expressed in transfected cells; membrane fraction used
T1 sequence (P35408 whole entry): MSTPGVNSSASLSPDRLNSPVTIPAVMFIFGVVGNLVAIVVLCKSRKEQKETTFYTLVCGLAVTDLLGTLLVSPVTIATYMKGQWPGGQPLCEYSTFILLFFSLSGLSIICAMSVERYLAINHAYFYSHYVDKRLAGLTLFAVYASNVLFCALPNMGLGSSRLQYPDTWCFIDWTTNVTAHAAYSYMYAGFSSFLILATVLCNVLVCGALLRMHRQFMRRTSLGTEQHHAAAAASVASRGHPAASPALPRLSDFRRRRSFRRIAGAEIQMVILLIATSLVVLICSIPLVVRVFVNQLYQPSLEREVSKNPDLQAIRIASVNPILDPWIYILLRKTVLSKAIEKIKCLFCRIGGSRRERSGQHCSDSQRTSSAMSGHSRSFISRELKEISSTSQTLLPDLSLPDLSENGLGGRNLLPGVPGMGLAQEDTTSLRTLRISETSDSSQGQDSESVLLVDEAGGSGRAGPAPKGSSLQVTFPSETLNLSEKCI
Method in brief: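 Membranes of HEK293 cells stably expressing human EP4 (1 μg/well) in HBSS/IBMX 0.5 mM/GTP/GDP/ATP buffer, pH 7.4, preincubated 30 min at 22-23 °C with compound plus PGE2 3 nM. cAMP quantified by AlphaScreen competition with biotinylated cAMP after 1 h. IC50 from cAMP standard curve by linear regression.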

[3] = molecular target: T1, human EP4 receptor; assay: [3H]-Prostaglandin E2 membrane binding assay (human EP4/HEK293 transfectant membranes); conditions: [3H]-PGE2 1 nM, hEP4/HEK293 membranes; Ki by Cheng-Prusoff; read-out: Binding pKi (converted)
Method in brief: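 HEK293 membranes stably expressing human EP4 (10 µg protein) incubated with 1 nM [3H]-PGE2 in 10 mM MES-KOH pH 6, 10 mM MgCl2, 1 mM CaCl2, 90 min at room temperature; nonspecific binding with 1 µM PGE2. Filtration, scintillation counting; Ki via Cheng-Prusoff, reported as pKi; compounds tested 1 nM–1 µM.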

With `Cc1cc(F)ccc1NC1CN(c2ncc(Cl)cc2C(=O)NC2(c3ccc(C(=O)O)cc3)CC2)C1` [E 34, 4-(1-(5-chloro-2-(3-((4-fluoro-2-methylphenyl)amino)azetidin-1-yl)nicotinamido)cyclopropyl)benzoic acid] the AUC(0-inf) ([1]; male, Han Wistar, plasma, IV) was 302 ng·h/mL, the AUC(0-t) ([1]; male, Han Wistar, plasma, IV) was 300 ng·h/mL and the clearance ([1]; male, Han Wistar, plasma, IV, read-out: CLp* (converted)) was 14.4 mL/min. It also gave a Vd ([1]; male, Han Wistar, plasma, IV, read-out: Vss*) of 0.227 L, a half-life ([1]; male, Han Wistar, plasma, IV) of 20.4 min and an AUC(0-inf) ([1]; male, Han Wistar, plasma, PO) of 128 ng·h/mL. For the same molecule, the AUC(0-t) ([1]; male, Han Wistar, plasma, PO) was 125 ng·h/mL, the Cmax ([1]; male, Han Wistar, plasma, PO) was 98.1 ng/mL and the Tmax ([1]; male, Han Wistar, plasma, PO) was 15 min. For the same molecule, the half-life ([1]; male, Han Wistar, plasma, PO) was 69.6 min, the bioavailability ([1]; male, Han Wistar, plasma, po, 1 mg/kg, PO, read-out: F %) was 42% and the Tlast ([1]; IV) was 2 h. For the same molecule, the Tlast ([1]; PO) was 6 h, the pIC50 [2] was 7.37 and the Ki [3] was 3.16 nM.
